Three compounds from patent EP0173319A1, “Substituted arylsulfonyl guanidines” (BAYER AG, priority 1984, dated 1986) can be followed below.

In experiment [1] the test system is Testpflanzen. Briefly: Pre-emergence-Test (herbicidal). The format is in vivo. The note with it: soil watered 24 h after sowing, damage rated after three weeks vs untreated control (0 % = keine Wirkung, 100 % = totale Vernichtung), rate or species not given. From the text:
(§1) Lösungsmittel: 5 Gewichtsteile Aceton Emulgator: 1 Gewichtsteil Alkylarylpolyglykolether
(§2) Zur Herstellung einer zweckmäßigen Wirkstoffzubereitung vermischt man 1 Gewichtsteil Wirkstoff mit der angegebenen Menge Lösungsmittel, gibt die angegebene Menge Emulgator zu und verdünnt das Konzentrat mit Wasser auf die gewünschte Konzentration.
Samen der Testpflanzen werden in normalen Boden ausgesät und nach 24 Stunden mit der Wirkstoffzubereitung begossen. Dabei hält man die Wassermenge pro Flächeneinheit zweckmäßigerweise konstant. Die Wirkstoffkonzentration in der Zubereitung spielt keine Rolle, entscheidend ist nur die Aufwandmenge des Wirkstoffs pro Flächeneinheit. Nach drei Wochen wird der Schädigungsgrad der Pflanzen bonitiert in % Schädigung im Vergleich zur Entwicklung der unbehandelten Kontrolle. Es bedeuten: • 0 % = keine Wirkung (wie unbehandelte Kontrolle) 100 % = totale Vernichtung

The subject of experiment [2] is Testpflanzen. Briefly: Post-emergence-Test (herbicidal). The format is in vivo. The following applies: test plants 5 - 15 cm high sprayed, damage rated after three weeks vs untreated control (0 % = keine Wirkung, 100 % = totale Vernichtung), rate or species not given.
From the text: as §1, §2
Mit der Wirkstoffzubereitung spritzt man Testpflanzen, welche eine Höhe von 5 - 15 cm haben so, daß die jeweils gewünschten Wirkstoffmengen pro Flächeneinheit ausgebracht werden. Die Konzentration der Spritzbrühe wird so gewählt, daß in 2000 1 Wasser/ha die jeweils gewünschten Wirkstoffmengen ausgebracht werden. Nach drei Wochen wird der Schädigungsgrad der Pflanzen bonitiert in % Schädigung im Vergleich zur Entwicklung der unbehandelten Kontrolle.
Es bedeuten: • 0 % = keine Wirkung (wie unbehandelte Kontrolle) 100 % = totale Vernichtung

Turning to `CON(C(=NS(=O)(=O)c1ccccc1SC)Nc1nc(C)cc(C)n1)S(=O)(=O)c1ccccc1SC` [Beispiel 1, N'-(4,6-Dimethyl-pyrimidin-2-yl)-N''-methoxy-N'',N'''-bis-(2-methylthio-benzolsulfonyl)-guanidin], the “herbizide Wirksamkeit” value in experiment [1] and in experiment [2] was “sehr gute herbizide Wirksamkeit” in each case.
With `Cc1cc(C)nc(NC(=NS(=O)(=O)c2ccccc2S(=O)(=O)N(C)C)NN(C)C)n1` [Beispiel 2, N'-(4,6-Dimethyl-pyrimidin-2-yl)-N''-dimethylamino-N'''-(2-dimethylamino-sulfonyl-benzolsulfonyl)-guanidin], the “herbizide Wirksamkeit” value in experiment [1] and in experiment [2] was “sehr gute herbizide Wirksamkeit” each time.
Turning to `Cc1cc(C)nc(NC(=NS(=O)(=O)c2ccccc2S(=O)(=O)N(C)C)N(OCC(C)C)S(=O)(=O)c2ccccc2S(=O)(=O)N(C)C)n1.[K]` [Beispiel 4, N'-(4,6-Dimethyl-pyrimidin-2-yl)-N''-(2-methyl-propoxy)-N'',N'''-bis-(2-dimethylaminosulfonyl-benzolsulfonyl)-guanidin-Kaliumsalz], in experiment [2], the “herbizide Wirksamkeit” value is on record as “sehr gute herbizide Wirksamkeit”.
